The METLIN SMRT retention time set (Domingo-Almenara et al. 2019)

Assay: gradient 5% acetonitrile 3 min, to 50% in 2 min, to 85% in 15 min, held 3 min, 100 µL/min
Conditions: column: Zorbax Extend-C18 2.1 x 50 mm; eluents: water / acetonitrile, 0.1% formic acid
In short: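 Using water and acetonitrile that each contained 0.1% formic acid, mixtures of ~100 pure standards were separated at 100 μL/min on a Zorbax Extend-C18 column (2.1 × 50 mm, 1.8 μm). The HPLC fed a quadrupole time-of-flight mass spectrometer working in positive and negative ionization mode, with dead and dwell volumes of 40 μL and 900 μL. Data were acquired over 3 months. Retention time was read from computationally picked adduct peaks after manual inspection of each.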

Structure (SMILES)	RP-LC retention time [s]
CCC(C(=O)Nc1ccc2c(c1)OCCO2)n1cnc2nc3c(cc2c1=O)CCCC3 (stereo unspecified)	763
Cc1cccc(NC(=O)Cn2nc(C(=O)N3CCOCC3)c3ccccc32)c1C	819
Cc1ccnc(Nc2nc(CC(=O)NCCc3cccs3)cs2)c1	581
CCOc1ccc(-c2noc(Cn3c(=O)n(-c4ccccc4F)c(=O)c4sccc43)n2)cc1OC	945
CCc1ccc(S(=O)(=O)N2CC(c3nc(-c4ccccc4)nn3C)C2)cc1	1030
CCOC(=O)CC1C(=O)NCCN1C(=O)COc1ccc(Br)cc1C (stereo unspecified)	797
O=C1COc2ccccc2N1Cc1nc(-c2cccc(C(F)(F)F)c2)no1	1100
COC[C@@H]1CN(S(=O)(=O)c2cccc(C#N)c2)C[C@H]1c1ccncc1	630
Cc1ccc(-c2csc(NC(=O)CC(C)C)n2)c(C)c1	1090
CCOc1ccc(-c2nc(C3CC(=O)N(c4ccc(CC)cc4)C3)no2)cc1OCC (stereo unspecified)	1180
CCN1C(=O)C(C)(C(=O)Nc2ccccc2F)Oc2cccnc21 (stereo unspecified)	855
CCN(CC)S(=O)(=O)c1cccc(-c2cn3cc(C)ccc3n2)c1	598
CCc1noc2nc(C)n(CC(=O)NCc3ccccc3C)c(=O)c12	782
Cc1sc(NC(=O)Cn2c(=O)sc3ccccc32)nc1-c1ccc(Cl)cc1	1110
O=C(Nc1ccc(Nc2ccc(-n3cccn3)nn2)cc1)Nc1ccccc1Cl	791
CCC(C(=O)N1CCN(c2cc(C)n3cnnc3n2)CC1)c1ccccc1 (stereo unspecified)	864
COc1ccc(Nc2c(-c3ccc(C)cc3)nc3cnccn23)cc1	855
CCOc1cccc(-c2noc(Cn3ccn(-c4c(C)cccc4C)c(=O)c3=O)n2)c1	951
Cc1ccc(NC(=O)Cn2c(=O)n(-c3ccccc3)c(=O)c3c2cc(C)n3C)cc1Cl	927
Oc1ccccc1-c1nc2ccc(Cl)cn2c1Nc1ccc2c(c1)OCCO2	879
Cc1[nH]c2ccccc2c1C(=O)C(=O)NCC1COc2ccccc2O1 (stereo unspecified)	832
Cc1cc(C)n2nc(SCC(=O)Nc3ccc(F)cc3)nc2n1	724
CCOc1ccccc1NC(=O)N1CCc2nc(-c3ccccc3)ncc2C1	1010

Structure (SMILES)	RP-LC retention time [s]
COc1ccc(Cl)cc1C(=O)NCCc1c[nH]c2ccc(C)cc12	657
Cc1ccc(CN2CCN(CC(=O)Nc3ccc(C)cc3)C(=O)C2=O)cc1	786
COC(=O)CNC(=O)N1Cc2ccccc2OC2(CCN(C(C)C)CC2)C1	595
O=C(NCCc1ccccc1)N1CCC(c2noc(-c3ccccn3)n2)C1 (stereo unspecified)	742
COCCCNC(=O)C1CCN(c2ccc(Sc3ccc(C(C)C)cc3)nn2)CC1	853
COC(=O)CC(=O)Nc1cc2c(cc1N1CCCCC1)n(C)c(=O)n2C	641
CCCN1C(=O)c2cc(S(=O)(=O)N3CCCCC3)ccc2Oc2cccnc21	1110
CCCC(=O)N1CCc2cn(C)c3cccc(c23)C1	832
O=C(NCc1cccc(Cl)c1)C1CCCN(c2cnc3nccnc3c2)C1 (stereo unspecified)	749
COc1ccccc1NC(=O)NCC(O)c1ccsc1 (stereo unspecified)	684
Cc1ccc(N2CC(c3noc(-c4ccc(N(C)C)cc4)n3)CC2=O)cc1 (stereo unspecified)	980
CN(C)C(=O)c1n[nH]c2c1CN(C(=O)c1cccc(C(F)(F)F)c1)CC2	673
O=C(Nc1cccc(Cl)c1)Nc1ccc2nncn2c1	735
COCc1cc(=O)n(CC(=O)Nc2ccc(OC)cc2)c(N2CCOCC2)n1	755
CCCc1nc2ccc(NC(=O)NCC)cc2c(=O)n1Cc1ccc(-c2ccccc2)cc1	996
Cc1ccc(Nc2cc(-n3ccnc3)ncn2)cc1C	671
COc1cccc(C2Cn3nnc(-c4nc(-c5ccc(OC(C)C)cc5)no4)c3CO2)c1 (stereo unspecified)	1250
Cc1ccc2nc3c(C(=O)NC4CC4)cccn3c(=O)c2c1	942
CCSc1nnc(NC(=O)CSc2nn3c(=O)c(C)nnc3s2)s1	640
O=C(Nc1cc(-c2ccsc2)no1)c1ccc(Br)o1	927
COc1ccc(Cl)cc1S(=O)(=O)N(C)CC1(C)CCOCC1	829
O=C(C1CCC1)N1CCc2sc(S(=O)(=O)Nc3ccc(F)c(Cl)c3)cc2C1	948
COc1ccc(-c2nc3cnccn3c2Nc2ccccc2C)cc1	886

Structure (SMILES)	RP-LC retention time [s]
Cc1nnc2ccc(S(=O)(=O)Nc3cccc(Cl)c3)cn12	724
CCC(C)NC(=O)C1CCC(=O)N(c2cc(OC)c(OC)c(OC)c2)C1c1ccc(OC)cc1 (stereo unspecified)	693
Cc1nn(C(C)C(=O)NCCCN2CCN(C)CC2)c(=O)c2c(C)n(-c3ccccc3)nc12 (stereo unspecified)	592
CC(=O)N1CCC(C(=O)Nc2nc(C(C)(C)C)cs2)CC1	731
NC(=O)[C@@H]1C[C@H](Oc2cccnc2)CN1C(=O)c1cccs1	532
Cc1ccc(-c2nc(CN3CCCC3=O)no2)cc1C	841
CCN(CC)C(=O)c1cc(=O)[nH]c2ccccc12	624
O=C(OCC12CC3CC(CC(C3)C1)C2)c1ccc(NCc2cc(O)ccc2O)cc1	1080
O=C(Nc1nc2ccc([N+](=O)[O-])cc2s1)c1ccc(S(=O)(=O)N2CCCCC2)cc1	1020
Cc1ccc(CNC(=O)c2cc3n(n2)CC(C)(C(=O)NCc2ccc(F)cc2)N(C)C3=O)cc1 (stereo unspecified)	741
COc1ccc(CCC(=O)NCCCOc2cccc3cccnc23)cc1	593
COc1cccc(CN2C[C@@H]3C(=O)N(Cc4ccc5c(c4)OCO5)C(=O)[C@@H]3C2)c1OC	704
CCc1ccc2nc(C)cc(C(=O)NC)c2c1	568
COCCN1C(=O)CCc2cc(NC(C)=O)ccc21	604
CCN(CC)CCCNC(=O)c1cccn1-c1nnc(N2CCCC2)s1	562
COc1ccc(OC)c(CNC(=O)C2CCN(c3ccc4nncn4n3)CC2)c1	680
Cc1noc(C)c1S(=O)(=O)N1CCC(CCOc2ccccc2)C1 (stereo unspecified)	1080
CN(CCc1noc(-c2ccc(Cl)cc2)n1)C(=O)COc1ccc(F)cc1	993
Cc1c(Cl)cccc1S(=O)(=O)N1CCc2c(c(-c3nnc(-c4ccccc4)o3)nn2C)C1	1060
Cc1ccc(-c2ncc3c(=O)n(CC(=O)NC(C)C)c(=O)n(C)c3n2)cc1	854
CS(=O)(=O)N1CCC(C(=O)NCCC2=CCCCC2)Oc2ccc(Cl)cc21 (stereo unspecified)	1020
Cc1cccc(CNC(=O)C2CCCN(S(=O)(=O)c3cn(C(C)C)cn3)C2)c1 (stereo unspecified)	781
Cc1cc(=O)n(CC(=O)N(C)c2ccccc2)c(N2CCCCC2)n1	669

Structure (SMILES)	RP-LC retention time [s]
Cc1oc(-c2[nH]ncc2C(=O)N2CCCCC2)cc1S(=O)(=O)Nc1ccccc1	730
Cc1cc2ncn(Cc3ccccc3F)c2cc1C	582
COCCNC(=O)NC1CCN(c2nc3cccnc3n(Cc3ccc(C)cc3)c2=O)CC1	882
CCc1ccc(-c2ccc(-n3nc(C)c(S(=O)(=O)N4CCOCC4)c3C)nn2)cc1	1070
Cc1csc(-n2nc(C)c(CC(=O)Nc3ccc(Cl)cc3)c2C)n1	997
O=C(Cc1ccsc1)NCC1CCCCC(=O)N1 (stereo unspecified)	619
Cc1oc2ccn(Cc3ccc(F)cc3)c(=O)c2c1C(=O)NCc1cc(F)ccc1F	1130
COCCN(CCOC)c1nc(-c2ccc([N+](=O)[O-])cc2)nc2ccccc12	849
COc1ccc(S(=O)(=O)N2CCN(c3ccc(Nc4ccccn4)nn3)CC2)cc1C	603
CCCCn1cc(S(=O)(=O)Nc2cccc(CC)c2)c2cccnc21	1070
Cn1c(C(=O)NCc2ccccc2)cc2ccncc21	604
COc1ccc(N2C(=O)N[C@@H]3C[C@]2(C)Oc2ccc(C)cc23)c(OC)c1	870
COc1ccc(S(=O)(=O)N2CC(=O)N(C3CCCC3)C3(CCCCC3)C2)cc1OC	1080
COc1ccc(C2CC(=O)N(c3ccc(F)c(C)c3)C(=O)C2)cc1	930
COCCn1nc2n(c1=O)CCC1(CC2)CCN(C(=O)C2CCOC2)CC1 (stereo unspecified)	587
O=C(CCN1CCN(CCO)CC1)N1c2ccccc2Sc2ccc(C(F)(F)F)cc21	673
O=C(NCCN1CCCCC1)c1csc(-c2ccnc(N3CCOCC3)c2)n1	566
O=S(=O)(c1cccc(Cl)c1)c1nnn2c1nc(N1CCCC1)c1sccc12	925
CCSc1nnc(NC(=O)C2CCCN(Cc3nc(-c4cccs4)no3)C2)s1 (stereo unspecified)	769
CCCNC(=O)CCc1c(C)n(CC)c2nc(-c3ccccc3)nn2c1=O	697
Cc1ccccc1-c1ccc(N2CCN(C(=O)NC3CCCCC3)CC2)nn1	631
CC(=O)NC(CC(C)C)C(=O)NC(Cc1ccccc1)C(=O)CCl (stereo unspecified)	750
